The source made the active and inactive calls.
How the values were obtained:
[1] = biological target: T1, Heat shock factor protein 1 (Mus musculus, UniProt P38532); assay: decrease of HSF1-responsive luciferase luminescence – cell-based, NIH3T3, dose retest, confirmation (AID 2382); assay type: functional;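 also: NIH3T3 fibroblasts with HSF1-driven luciferase reporter stressed by proteasome inhibitor MG132; luminescence from HSF1-driven luciferase expression after 8 hours of MG132 stress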
T1 sequence (P38532 whole entry): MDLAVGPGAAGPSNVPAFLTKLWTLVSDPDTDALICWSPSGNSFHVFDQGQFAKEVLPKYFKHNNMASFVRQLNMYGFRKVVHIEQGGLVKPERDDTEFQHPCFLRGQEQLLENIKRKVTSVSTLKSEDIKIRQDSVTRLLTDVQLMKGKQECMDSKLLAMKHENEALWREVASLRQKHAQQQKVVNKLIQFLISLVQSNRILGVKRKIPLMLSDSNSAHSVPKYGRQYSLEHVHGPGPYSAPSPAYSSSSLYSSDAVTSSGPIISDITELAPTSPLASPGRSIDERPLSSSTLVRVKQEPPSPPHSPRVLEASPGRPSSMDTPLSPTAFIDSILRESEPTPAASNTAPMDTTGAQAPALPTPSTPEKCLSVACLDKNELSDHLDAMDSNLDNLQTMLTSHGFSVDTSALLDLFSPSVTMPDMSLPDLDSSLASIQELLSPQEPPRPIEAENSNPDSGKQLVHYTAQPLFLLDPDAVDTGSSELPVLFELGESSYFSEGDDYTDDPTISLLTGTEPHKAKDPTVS

Caspase-3 = biological target: T2, Caspase-3 (Homo sapiens, UniProt P42574); assay: activators of human procaspase-3 D3A mutant – biochemical, absorbance, PC-3 D3A mutant, counter-screen for dual procaspase-3/7 activator project, dose response (AID 504328)
T2 sequence (P42574 whole entry): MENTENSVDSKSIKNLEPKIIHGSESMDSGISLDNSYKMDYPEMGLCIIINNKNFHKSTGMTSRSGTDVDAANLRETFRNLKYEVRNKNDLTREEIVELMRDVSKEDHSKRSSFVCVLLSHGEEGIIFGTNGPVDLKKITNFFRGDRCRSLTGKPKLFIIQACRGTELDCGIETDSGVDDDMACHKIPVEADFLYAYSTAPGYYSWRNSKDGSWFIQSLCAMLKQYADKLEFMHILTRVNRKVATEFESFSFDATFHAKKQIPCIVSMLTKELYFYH

[2] = biological target: T3, Microphthalmia-associated transcription factor (Homo sapiens, UniProt O75030); assay: reducers of TRPM1 reporter luminescence, concentration series – cell-based, SK-MEL-5, cherry-picked, set 3, MITF inhibitor project, dose response (AID 493073); assay type: functional;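 also: SK-MEL-5 melanoma cells with luciferase driven by the MITF target TRPM1 promoter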
T3 sequence (O75030 whole entry): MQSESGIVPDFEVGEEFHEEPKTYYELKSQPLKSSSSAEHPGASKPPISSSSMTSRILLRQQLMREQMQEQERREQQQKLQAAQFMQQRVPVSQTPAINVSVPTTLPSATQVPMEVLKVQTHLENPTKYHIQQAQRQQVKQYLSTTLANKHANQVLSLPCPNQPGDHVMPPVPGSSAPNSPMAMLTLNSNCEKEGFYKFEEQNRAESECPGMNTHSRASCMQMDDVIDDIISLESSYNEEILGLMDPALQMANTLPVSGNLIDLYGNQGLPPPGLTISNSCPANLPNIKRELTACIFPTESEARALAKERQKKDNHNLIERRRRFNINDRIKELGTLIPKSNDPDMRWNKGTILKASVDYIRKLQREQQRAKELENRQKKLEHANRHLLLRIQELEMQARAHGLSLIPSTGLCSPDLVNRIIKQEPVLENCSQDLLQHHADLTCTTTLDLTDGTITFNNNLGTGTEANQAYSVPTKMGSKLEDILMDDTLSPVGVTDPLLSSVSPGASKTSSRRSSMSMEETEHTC

Caspase-7 = Caspase-7 (Homo sapiens, UniProt P55210); assay: potency of procaspase-7 enzyme activation – biochemical, absorbance, human, dual procaspase-3/-7 activator project, dose response (AID 504330)
Wee1-like protein kinase = Wee1-like protein kinase (Homo sapiens, UniProt P30291); assay: HeLa cell cycle G2/M accumulation – FACS, mechanism study for Wee1 degradation inhibitor project, late-stage follow-up, panel member Wee1 Degradation (AID 2088)
[3] = biological target: G2/mitotic-specific cyclin-B1 (Homo sapiens, UniProt P14635); assay: HeLa cell cycle G2/M accumulation – FACS, mechanism study for Wee1 degradation inhibitor project, late-stage follow-up, panel member Cyclin B Degradation (AID 2088)
[4] = biological target: Cyclin-dependent kinase 5/CDK5 activator 1 (Homo sapiens, UniProt Q00535); assay: blockade of human CDK5 activity – biochemical, cherry-picked samples, set 2, dose response (AID 504545)
[5] = biological target: Heat shock protein HSP 90-alpha (Homo sapiens, UniProt P07900); assay type: functional, organism-based
[6] = biological target: Dual specificity tyrosine-phosphorylation-regulated kinase 1A (Rattus norvegicus, UniProt Q63470); assay type: biochemical, Homo sapiens
[7] = PhoP-dependent GFP reporter suppression – synthesized compounds, round 3, SAR follow-up (AID 434996); assay type: functional
[8] = biological target: Metabotropic glutamate receptor 4 (Homo sapiens, UniProt Q14833); assay: Modulation of the Metabotropic Glutamate Receptor mGluR4: Potency at human mGluR4. Modulation of intracellular Ca2+ using Fluo-4, AM, in CHO expressing recombinant receptor [Related pubchem assays (depositor defined):AID2437, AID2807]; assay type: functional, cell-based
[9] = biological target: Metabotropic glutamate receptor 4 (Rattus norvegicus, UniProt P31423); assay: Modulation of the Metabotropic Glutamate Receptor mGluR4: Rat PAM Potency. [Related pubchem assays (depositor defined):AID2437, AID2807]; assay type: functional
[10] = biological target: Eukaryotic translation initiation factor 4H (Homo sapiens, UniProt Q15056); assay: eIF4H binding inhibition – biochemical, uHTS, fluorescence polarization, translation initiation inhibitor project, primary screen (AID 2012)
[11] = biological target: Polyadenylate-binding protein 1 (Homo sapiens, UniProt P11940); assay: blockers of PABP interaction with poly(A) – biochemical, fluorescence polarization, […] (AID 2014)
Sequence of Polyadenylate-binding protein 1 (P11940 whole entry): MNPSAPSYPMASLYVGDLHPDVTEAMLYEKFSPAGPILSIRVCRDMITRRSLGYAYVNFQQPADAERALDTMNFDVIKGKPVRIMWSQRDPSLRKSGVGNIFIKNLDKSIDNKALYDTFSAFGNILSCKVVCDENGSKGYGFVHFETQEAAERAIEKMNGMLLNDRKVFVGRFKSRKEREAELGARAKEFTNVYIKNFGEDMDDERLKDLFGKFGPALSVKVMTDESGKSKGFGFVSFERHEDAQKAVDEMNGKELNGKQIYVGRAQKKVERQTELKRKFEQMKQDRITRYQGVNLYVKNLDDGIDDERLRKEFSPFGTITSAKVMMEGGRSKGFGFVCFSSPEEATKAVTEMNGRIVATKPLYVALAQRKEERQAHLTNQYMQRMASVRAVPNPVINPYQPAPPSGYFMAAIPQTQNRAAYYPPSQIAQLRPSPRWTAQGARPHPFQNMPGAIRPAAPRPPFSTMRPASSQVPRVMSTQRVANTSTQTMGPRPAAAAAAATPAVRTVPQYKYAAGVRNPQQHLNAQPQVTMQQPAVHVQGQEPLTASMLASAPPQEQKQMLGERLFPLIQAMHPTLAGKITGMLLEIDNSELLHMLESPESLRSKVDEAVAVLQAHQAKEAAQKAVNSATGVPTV

Sequence of Cyclin-dependent kinase 5/CDK5 activator 1 (Q00535 whole entry): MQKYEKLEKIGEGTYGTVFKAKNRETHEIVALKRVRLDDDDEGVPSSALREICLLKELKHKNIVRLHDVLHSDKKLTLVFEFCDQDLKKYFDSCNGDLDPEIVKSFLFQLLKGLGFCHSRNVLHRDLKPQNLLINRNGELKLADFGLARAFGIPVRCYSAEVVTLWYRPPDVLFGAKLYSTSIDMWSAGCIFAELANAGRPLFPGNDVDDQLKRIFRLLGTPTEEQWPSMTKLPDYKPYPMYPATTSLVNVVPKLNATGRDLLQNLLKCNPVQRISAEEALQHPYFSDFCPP
Sequence of Cyclin-dependent kinase 5/CDK5 activator 1 (Q15078 whole entry, further chain): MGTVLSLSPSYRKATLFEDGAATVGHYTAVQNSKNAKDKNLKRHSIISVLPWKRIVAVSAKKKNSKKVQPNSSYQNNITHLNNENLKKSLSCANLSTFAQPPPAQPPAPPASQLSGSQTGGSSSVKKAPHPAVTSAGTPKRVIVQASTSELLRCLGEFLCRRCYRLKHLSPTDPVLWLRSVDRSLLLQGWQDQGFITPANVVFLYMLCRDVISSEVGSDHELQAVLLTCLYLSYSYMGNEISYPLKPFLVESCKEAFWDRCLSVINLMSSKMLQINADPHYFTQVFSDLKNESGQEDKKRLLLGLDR
Sequence of Metabotropic glutamate receptor 4 (Rattus norvegicus, UniProt P31423) (P31423 whole entry): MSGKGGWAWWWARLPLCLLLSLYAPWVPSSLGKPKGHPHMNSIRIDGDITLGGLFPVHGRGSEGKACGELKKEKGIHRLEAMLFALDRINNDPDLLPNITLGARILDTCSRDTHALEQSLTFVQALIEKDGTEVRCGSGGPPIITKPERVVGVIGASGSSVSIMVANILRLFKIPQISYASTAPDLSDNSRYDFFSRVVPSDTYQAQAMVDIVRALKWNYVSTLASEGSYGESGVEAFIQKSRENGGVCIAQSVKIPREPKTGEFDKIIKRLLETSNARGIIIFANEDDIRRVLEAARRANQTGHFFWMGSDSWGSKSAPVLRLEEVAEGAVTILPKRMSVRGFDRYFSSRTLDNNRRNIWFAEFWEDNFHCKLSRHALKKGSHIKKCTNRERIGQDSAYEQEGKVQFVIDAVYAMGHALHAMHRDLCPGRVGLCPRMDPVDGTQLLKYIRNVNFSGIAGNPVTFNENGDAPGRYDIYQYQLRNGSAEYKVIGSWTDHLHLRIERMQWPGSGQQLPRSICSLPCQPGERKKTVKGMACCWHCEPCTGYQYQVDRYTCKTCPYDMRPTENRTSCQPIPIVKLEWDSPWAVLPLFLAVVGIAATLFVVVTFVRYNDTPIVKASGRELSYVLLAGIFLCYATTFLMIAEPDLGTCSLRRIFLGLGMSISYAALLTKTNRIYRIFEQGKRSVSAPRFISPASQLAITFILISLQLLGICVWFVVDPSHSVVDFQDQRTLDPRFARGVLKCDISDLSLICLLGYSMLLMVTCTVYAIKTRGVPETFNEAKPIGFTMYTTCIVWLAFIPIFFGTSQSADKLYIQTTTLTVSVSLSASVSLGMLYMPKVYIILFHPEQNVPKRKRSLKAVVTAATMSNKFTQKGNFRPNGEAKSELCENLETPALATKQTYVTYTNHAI
Sequence of G2/mitotic-specific cyclin-B1 (P14635 whole entry): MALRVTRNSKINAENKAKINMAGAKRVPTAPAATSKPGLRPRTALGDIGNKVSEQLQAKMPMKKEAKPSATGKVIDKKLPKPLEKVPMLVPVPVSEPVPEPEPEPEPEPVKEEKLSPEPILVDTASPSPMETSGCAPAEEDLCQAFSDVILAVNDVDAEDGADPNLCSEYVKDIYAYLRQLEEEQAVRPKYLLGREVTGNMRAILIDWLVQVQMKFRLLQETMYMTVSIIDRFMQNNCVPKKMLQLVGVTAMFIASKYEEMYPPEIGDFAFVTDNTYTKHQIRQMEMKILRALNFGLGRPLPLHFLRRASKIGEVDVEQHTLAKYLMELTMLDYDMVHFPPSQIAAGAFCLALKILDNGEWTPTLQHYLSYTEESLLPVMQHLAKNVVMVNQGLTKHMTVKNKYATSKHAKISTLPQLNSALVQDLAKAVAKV
Sequence of Metabotropic glutamate receptor 4 (Homo sapiens, UniProt Q14833) (Q14833 whole entry): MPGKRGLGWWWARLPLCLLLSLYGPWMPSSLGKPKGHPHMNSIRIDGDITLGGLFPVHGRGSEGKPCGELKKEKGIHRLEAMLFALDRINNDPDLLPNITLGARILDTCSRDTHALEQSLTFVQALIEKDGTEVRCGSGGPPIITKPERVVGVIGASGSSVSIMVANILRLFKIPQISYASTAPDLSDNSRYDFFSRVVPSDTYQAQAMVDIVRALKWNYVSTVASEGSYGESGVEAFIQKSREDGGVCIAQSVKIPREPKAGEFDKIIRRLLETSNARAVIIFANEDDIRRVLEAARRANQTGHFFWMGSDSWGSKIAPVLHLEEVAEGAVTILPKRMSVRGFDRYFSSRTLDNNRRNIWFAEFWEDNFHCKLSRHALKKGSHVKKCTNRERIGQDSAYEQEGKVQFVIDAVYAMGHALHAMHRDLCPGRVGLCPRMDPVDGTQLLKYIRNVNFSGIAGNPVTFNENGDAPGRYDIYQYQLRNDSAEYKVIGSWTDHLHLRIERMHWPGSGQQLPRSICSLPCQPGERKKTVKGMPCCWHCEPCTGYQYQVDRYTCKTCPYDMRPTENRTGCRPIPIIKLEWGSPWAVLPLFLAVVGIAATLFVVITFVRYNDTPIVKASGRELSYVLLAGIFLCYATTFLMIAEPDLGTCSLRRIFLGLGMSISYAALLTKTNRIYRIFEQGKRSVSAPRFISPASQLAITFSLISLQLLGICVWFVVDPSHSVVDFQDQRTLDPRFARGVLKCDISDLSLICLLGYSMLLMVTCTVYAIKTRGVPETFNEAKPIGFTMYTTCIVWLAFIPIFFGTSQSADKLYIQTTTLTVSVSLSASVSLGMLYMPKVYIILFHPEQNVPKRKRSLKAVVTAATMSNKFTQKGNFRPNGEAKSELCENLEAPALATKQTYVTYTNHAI
Sequence of Wee1-like protein kinase (P30291 whole entry): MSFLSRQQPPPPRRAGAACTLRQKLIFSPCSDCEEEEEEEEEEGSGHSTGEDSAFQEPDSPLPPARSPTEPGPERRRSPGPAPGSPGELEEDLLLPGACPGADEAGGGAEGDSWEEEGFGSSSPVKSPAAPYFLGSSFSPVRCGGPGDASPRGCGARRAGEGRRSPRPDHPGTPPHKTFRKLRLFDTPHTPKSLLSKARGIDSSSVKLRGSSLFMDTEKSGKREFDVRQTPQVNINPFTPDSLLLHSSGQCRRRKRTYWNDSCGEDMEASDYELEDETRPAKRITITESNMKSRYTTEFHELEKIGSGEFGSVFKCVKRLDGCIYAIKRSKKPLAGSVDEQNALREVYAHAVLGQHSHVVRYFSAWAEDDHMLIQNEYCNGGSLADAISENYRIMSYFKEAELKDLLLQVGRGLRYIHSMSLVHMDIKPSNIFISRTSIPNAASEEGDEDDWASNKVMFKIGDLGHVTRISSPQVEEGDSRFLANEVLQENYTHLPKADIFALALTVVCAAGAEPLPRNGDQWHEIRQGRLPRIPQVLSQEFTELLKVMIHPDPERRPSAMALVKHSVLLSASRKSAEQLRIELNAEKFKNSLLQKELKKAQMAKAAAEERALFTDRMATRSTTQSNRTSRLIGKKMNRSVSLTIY

SMILES: O=C(Nc1ccc2c(c1)OCCO2)c1coc2ccccc2c1=O
- EC50 [1]: > 195 µM (not active)
- EC50 (Caspase-3): > 85.3 µM (inactive)
- AC50 [2]: 46 µM (active)
- EC50 (Caspase-7): > 85.3 µM (inactive)

SMILES: CCc1cccc(NC(=O)CCCOc2cc(=O)n(C)c3ccccc23)c1
- EC50 (Wee1-like protein kinase): > 49.7 µM (inactive)
- EC50 [3]: > 49.7 µM (inactive)

SMILES: Nc1cc2c(cc1[N+](=O)[O-])-c1ccccc1C2=NO
- AC50 [4]: 41.2 µM (active)
- AC50 [5]: 8.8 µM (active)
- AC50 [6]: 0.143 µM (active)

SMILES: COc1ccccc1CNC(=S)Nc1ccncc1
- IC50 [7]: > 150 µM (active)

SMILES: O=C(Nc1ccc(Cl)c(Cl)c1)c1ccsc1
- EC50 [8]: 12.7 µM (active)
- EC50 [9]: 9.23 µM (active)

SMILES: CN(C)CCNc1c2c(nc3ccccc13)CCC2
- IC50 [10]: 99.1 µM (active)
- IC50 [11]: 32.8 µM (active)

From ChEMBL document CHEMBL1201862, “PubChem BioAssay data set” (2004)
